Measured values as given in ChEMBL document CHEMBL1268923, “Identification of 9-fluoro substituted (-)-cytisine derivatives as ligands with high affinity for nicotinic receptors” (Bioorg Med Chem Lett, 2010).
pKi: −log10 of the molar value.

What was measured:
[1] = biological target: Neuronal acetylcholine receptor; alpha4/beta2 (Rattus norvegicus, UniProt P09483+P12390); test: Displacement of [3H]cytisine from rat alpha4beta2 nAChR in rat brain cell membrane; assay type: cell membranes
[2] = biological target: Neuronal acetylcholine receptor subunit alpha-7 (Rattus norvegicus, UniProt Q05941); test: Displacement of [125I]alpha-Bungarotoxin from alpha7 nAchR in rat brain cell membrane; assay type: cell membranes
Neuronal acetylcholine receptor subunit alpha-7, sequence (Q05941 whole entry): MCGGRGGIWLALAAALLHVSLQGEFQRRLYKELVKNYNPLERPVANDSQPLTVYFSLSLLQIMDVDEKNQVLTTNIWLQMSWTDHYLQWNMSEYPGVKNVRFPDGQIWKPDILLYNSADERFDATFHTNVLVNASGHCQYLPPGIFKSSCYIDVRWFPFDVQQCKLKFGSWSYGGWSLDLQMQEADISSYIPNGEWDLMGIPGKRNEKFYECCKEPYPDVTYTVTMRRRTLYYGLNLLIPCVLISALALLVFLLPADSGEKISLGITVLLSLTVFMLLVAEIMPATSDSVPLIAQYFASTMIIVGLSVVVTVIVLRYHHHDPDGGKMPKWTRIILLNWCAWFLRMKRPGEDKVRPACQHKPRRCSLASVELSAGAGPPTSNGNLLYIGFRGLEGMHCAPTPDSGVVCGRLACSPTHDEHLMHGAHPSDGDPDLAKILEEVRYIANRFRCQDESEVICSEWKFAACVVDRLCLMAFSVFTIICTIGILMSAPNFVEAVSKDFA

Neuronal acetylcholine receptor; alpha4/beta2, sequence (P09483 whole entry): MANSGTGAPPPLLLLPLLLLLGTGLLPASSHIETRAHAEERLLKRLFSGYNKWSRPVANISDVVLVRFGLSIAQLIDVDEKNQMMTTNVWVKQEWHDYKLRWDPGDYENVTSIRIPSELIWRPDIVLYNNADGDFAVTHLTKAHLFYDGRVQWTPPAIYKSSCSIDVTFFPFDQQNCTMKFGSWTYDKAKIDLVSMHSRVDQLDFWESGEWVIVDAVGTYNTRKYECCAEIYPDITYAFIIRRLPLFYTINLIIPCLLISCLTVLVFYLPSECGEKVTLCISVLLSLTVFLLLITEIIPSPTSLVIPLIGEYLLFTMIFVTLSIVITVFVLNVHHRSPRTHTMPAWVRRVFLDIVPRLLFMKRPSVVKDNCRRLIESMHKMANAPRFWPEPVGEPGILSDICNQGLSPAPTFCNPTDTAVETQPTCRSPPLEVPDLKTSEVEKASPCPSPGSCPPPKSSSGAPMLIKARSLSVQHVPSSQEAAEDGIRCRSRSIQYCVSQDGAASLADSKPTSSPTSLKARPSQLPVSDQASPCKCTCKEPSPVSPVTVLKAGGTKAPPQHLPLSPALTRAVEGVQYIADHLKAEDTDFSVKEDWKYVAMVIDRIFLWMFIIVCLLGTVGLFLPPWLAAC
Neuronal acetylcholine receptor; alpha4/beta2, sequence (P12390 whole entry): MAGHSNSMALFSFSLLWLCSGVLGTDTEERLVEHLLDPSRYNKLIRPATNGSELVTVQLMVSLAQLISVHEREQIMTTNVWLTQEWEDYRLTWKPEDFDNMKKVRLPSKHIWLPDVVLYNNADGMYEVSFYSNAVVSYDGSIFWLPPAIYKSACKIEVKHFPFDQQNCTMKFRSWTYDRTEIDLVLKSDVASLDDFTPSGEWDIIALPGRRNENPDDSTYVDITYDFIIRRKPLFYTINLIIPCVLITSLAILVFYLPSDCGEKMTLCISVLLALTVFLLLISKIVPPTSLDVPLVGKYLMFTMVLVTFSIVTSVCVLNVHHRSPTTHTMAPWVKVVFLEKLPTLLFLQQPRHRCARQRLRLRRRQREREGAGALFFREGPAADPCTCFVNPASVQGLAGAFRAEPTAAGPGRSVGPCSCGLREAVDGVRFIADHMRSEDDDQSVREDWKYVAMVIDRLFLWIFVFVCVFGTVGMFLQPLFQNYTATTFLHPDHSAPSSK

O=c1c(F)ccc2n1C[C@@H]1CNC[C@H]2C1
pKi [1]: 8.19

O=c1c(C(F)(F)F)ccc2n1C[C@@H]1CNC[C@H]2C1
pKi [1]: 9.66
pKi [2]: 6.00

Cc1ccc2n(c1=O)C[C@@H]1CNC[C@H]2C1
pKi [1]: 9.62
pKi [2]: 5.70

O=c1cccc2n1C[C@@H]1C[C@@H]2CN(I)C1
pKi [1]: 9.78
pKi [2]: 5.70

O=c1c(Br)ccc2n1C[C@@H]1CNC[C@H]2C1
pKi [1]: 9.94
pKi [2]: 6.40

O=c1cccc2n1C[C@@H]1C[C@@H]2CN(Br)C1
pKi [1]: 9.68
pKi [2]: 6.95

O=c1cccc2n1C[C@@H]1CNC[C@H]2C1 [CYTISINICLINE]
pKi [1]: 8.97
pKi [2]: 6.00
